Target: T1, human orexin type 2 receptor (Homo sapiens, UniProt O43614)
T1 construct: human orexin type 2 receptor cDNA was inserted into pcDNA3.1(+) plasmid vector (Invitrogen); expressed in transfected cells
T1 sequence (O43614 1-444): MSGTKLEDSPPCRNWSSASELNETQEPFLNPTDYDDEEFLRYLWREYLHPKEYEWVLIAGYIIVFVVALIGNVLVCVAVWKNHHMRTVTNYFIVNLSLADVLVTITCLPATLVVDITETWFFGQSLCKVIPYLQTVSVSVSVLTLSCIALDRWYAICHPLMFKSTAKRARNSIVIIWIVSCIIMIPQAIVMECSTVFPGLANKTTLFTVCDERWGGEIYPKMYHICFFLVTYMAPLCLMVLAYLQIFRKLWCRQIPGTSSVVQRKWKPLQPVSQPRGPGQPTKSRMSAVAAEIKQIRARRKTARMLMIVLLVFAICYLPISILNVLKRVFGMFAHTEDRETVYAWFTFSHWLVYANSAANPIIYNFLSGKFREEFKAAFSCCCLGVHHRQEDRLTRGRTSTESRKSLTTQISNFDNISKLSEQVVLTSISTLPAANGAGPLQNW
Experiment: Measurement of orexin type 2 receptor agonist activity (calcium fluorescence, CHO cells expressing hOX2R)
Format: cell-based
Details: test compound 3 μM; CHO cells expressing human OX2 receptor; DMSO = 0%, orexin A (human) = 100%
Method in brief: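 CHO-dhfr cells stably expressing hOX2R, loaded with Fluo-4 AM in HBSS/20 mM HEPES/0.1% BSA with probenecid, then given test compound. Calcium fluorescence was read for about 2 min 40 sec. Activity (%) was scaled between DMSO (0%) and 10 nM final human orexin A (100%).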

| Structure (SMILES) | OX2R agonist activity (3 μM, %) |
| --- | --- |
| CS(=O)(=O)N[C@H]1CCN(C(=O)C2(O)CCC2)[C@H]1Cc1cccc(-c2cc(F)cc(F)c2)c1 [Example 344, N-((2S,3S)-2-((3′,5′-difluorobiphenyl-3-yl)methyl)-1-((1-hydroxycyclobutyl)carbonyl)pyrrolidin-3-yl)methanesulfonamide] | 99% |
| CS(=O)(=O)N[C@H]1CCN(C(=O)N2CCC2)[C@H]1Cc1cccc(-c2cc(F)cc(F)c2)c1 [Example 345, N-((2S,3S)-1-(azetidin-1-ylcarbonyl)-2-((3′,5′-difluorobiphenyl-3-yl)methyl)pyrrolidin-3-yl)methanesulfonamide] | 93% |
| CS(=O)(=O)N[C@H]1CCN(C(=O)C2(C#N)CCC2)[C@H]1Cc1cccc(-c2cccc(F)c2)c1 [Example 346, N-((2S,3S)-1-((1-cyanocyclobutyl)carbonyl)-2-((3′-fluorobiphenyl-3-yl)methyl)pyrrolidin-3-yl)methanesulfonamide] | 107% |
| CS(=O)(=O)N[C@H]1CCN(C(=O)N2CC3(CC3)C2)[C@H]1Cc1cccc(-c2cccc(F)c2)c1 [Example 347, N-((2S,3S)-1-(5-azaspiro[2.3]hex-5-ylcarbonyl)-2-((3′-fluorobiphenyl-3-yl)methyl)pyrrolidin-3-yl)methanesulfonamide] | 87% |
| CCS(=O)(=O)N[C@H]1CCN(C(=O)N2CCC2)[C@H]1Cc1csc(-c2cc(F)cc(F)c2)n1 [Example 348, N-((2S,3S)-1-(azetidin-1-ylcarbonyl)-2-((2-(3,5-difluorophenyl)-1,3-thiazol-4-yl)methyl)pyrrolidin-3-yl)ethanesulfonamide] | 109% |
| CC(C)(C)C(=O)N1CC[C@H](NS(C)(=O)=O)[C@@H]1Cc1cccc(-c2cccc(F)c2)c1F [Example 349, N-((2S,3S)-2-((2,3′-difluorobiphenyl-3-yl)methyl)-1-(2,2-dimethylpropanoyl)pyrrolidin-3-yl)methanesulfonamide] | 99% |
| CS(=O)(=O)N[C@H]1CCN(C(=O)C2CCC2)[C@H]1Cc1cccc(-c2cccc(F)c2)c1F [Example 350, N-((2S,3S)-1-(cyclobutylcarbonyl)-2-((2,3′-difluorobiphenyl-3-yl)methyl)pyrrolidin-3-yl)methanesulfonamide] | 99% |
| CC1(C(=O)N2CC[C@H](NS(C)(=O)=O)[C@@H]2Cc2cccc(-c3cccc(F)c3)c2F)CC1 [Example 351, N-((2S,3S)-2-((2,3′-difluorobiphenyl-3-yl)methyl)-1-((1-methylcyclopropyl)carbonyl)pyrrolidin-3-yl)methanesulfonamide] | 106% |
| CS(=O)(=O)N[C@H]1CCN(C(=O)N2CCC2)[C@H]1Cc1cccc(-c2cccc(F)c2)c1F [Example 352, N-((2S,3S)-1-(azetidin-1-ylcarbonyl)-2-((2,3′-difluorobiphenyl-3-yl)methyl)pyrrolidin-3-yl)methanesulfonamide] | 102% |
| CN(C)C(=O)N1CC[C@H](NS(C)(=O)=O)[C@@H]1Cc1cccc(-c2cc(F)cc(F)c2)c1 [Example 366, (2S,3S)-2-((3′,5′-difluorobiphenyl-3-yl)methyl)-N,N-dimethyl-3-((methylsulfonyl)amino)pyrrolidine-1-carboxamide] | 100% |
| CCS(=O)(=O)N[C@H]1CCN(C(=O)N(C)C)[C@H]1Cc1cccc(-c2cccc(F)c2)c1F [Example 373, (2S,3S)-2-((2,3′-difluorobiphenyl-3-yl)methyl)-3-((ethylsulfonyl)amino)-N,N-dimethylpyrrolidine-1-carboxamide] | 96% |
| CC(C)(O)C(=O)N1CC[C@H](NS(C)(=O)=O)[C@@H]1Cc1cccc(-c2cccc(F)c2)c1F [Example 387, N-((2S,3S)-2-((2,3′-difluorobiphenyl-3-yl)methyl)-1-(2-hydroxy-2-methylpropanoyl)pyrrolidin-3-yl)methanesulfonamide] | 106% |
| CCS(=O)(=O)N[C@H]1CCN(C(=O)C(C)(C)O)[C@H]1Cc1cccc(-c2cccc(F)c2)c1F [Example 389, N-((2S,3S)-2-((2,3′-difluorobiphenyl-3-yl)methyl)-1-(2-hydroxy-2-methylpropanoyl)pyrrolidin-3-yl)ethanesulfonamide] | 102% |
| CC(C)(O)C(=O)N1CC[C@H](NS(C)(=O)=O)[C@@H]1Cc1cccc(-c2cc(F)cc(F)c2)c1F [Example 395, N-((2S,3S)-1-(2-hydroxy-2-methylpropanoyl)-2-((2,3′,5′-trifluorobiphenyl-3-yl)methyl)pyrrolidin-3-yl)methanesulfonamide] | 104% |
| CCS(=O)(=O)N[C@H]1CCN(C(=O)N(C)C)[C@H]1Cc1cccc(-c2cc(F)cc(F)c2)c1F [Example 399, (2S,3S)-3-((ethylsulfonyl)amino)-N,N-dimethyl-2-((2,3′,5′-trifluorobiphenyl-3-yl)methyl)pyrrolidine-1-carboxamide] | 107% |
| CC(C)C(=O)N1CC[C@H](NS(C)(=O)=O)[C@@H]1Cc1cccc(-c2cc(F)cc(F)c2)c1F [Example 402, N-((2S,3S)-1-isobutyryl-2-((2,3′,5′-trifluorobiphenyl-3-yl)methyl)pyrrolidin-3-yl)methanesulfonamide] | 107% |
| CCS(=O)(=O)N[C@H]1CCN(C(=O)C(C)(C)O)[C@H]1Cc1cccc(-c2cc(F)cc(F)c2)c1 [Example 404, N-((2S,3S)-2-((3′,5′-difluorobiphenyl-3-yl)methyl)-1-(2-hydroxy-2-methylpropanoyl)pyrrolidin-3-yl)ethanesulfonamide] | 100% |
| CC(C)(O)C(=O)N1CC[C@H](NS(=O)(=O)CF)[C@@H]1Cc1cccc(-c2cccc(F)c2)c1F [Example 417, N-((2S,3S)-2-((2,3′-difluorobiphenyl-3-yl)methyl)-1-(2-hydroxy-2-methylpropanoyl)pyrrolidin-3-yl)-1-fluoromethanesulfonamide] | 110% |
| CC(C)(O)C(=O)N1CC[C@H](NS(=O)(=O)CF)[C@@H]1Cc1cccc(-c2cc(F)cc(F)c2)c1 [Example 421, N-((2S,3S)-2-((3′,5′-difluorobiphenyl-3-yl)methyl)-1-(2-hydroxy-2-methylpropanoyl)pyrrolidin-3-yl)-1-fluoromethanesulfonamide] | 106% |
| CC(C)(O)C(=O)N1CC[C@H](NS(=O)(=O)CF)[C@@H]1Cc1cccc(-c2cc(F)cc(F)c2)c1F [Example 423, 1-fluoro-N-((2S,3S)-1-(2-hydroxy-2-methylpropanoyl)-2-((2,3′,5′-trifluorobiphenyl-3-yl)methyl)pyrrolidin-3-yl)methanesulfonamide] | 109% |
| CC(C)(O)C(=O)N1CC[C@H](NS(=O)(=O)C(F)F)[C@@H]1Cc1cccc(-c2cc(F)cc(F)c2)c1F [Example 424, 1,1-difluoro-N-((2S,3S)-1-(2-hydroxy-2-methylpropanoyl)-2-((2,3′,5′-trifluorobiphenyl-3-yl)methyl)pyrrolidin-3-yl)methanesulfonamide] | 101% |
| CC(C)(O)C(=O)N1CC[C@H](NS(C)(=O)=O)[C@@H]1Cc1cccc(-c2cc(F)cc(Cl)c2)c1F [Example 428, N-((2S,3S)-2-((3′-chloro-2,5′-difluorobiphenyl-3-yl)methyl)-1-(2-hydroxy-2-methylpropanoyl)pyrrolidin-3-yl)methanesulfonamide] | 102% |
| CCS(=O)(=O)N[C@H]1CCN(C(=O)C(C)(C)O)[C@H]1Cc1cccc(-c2cccc(Cl)c2)c1F [Example 431, N-((2S,3S)-2-((3′-chloro-2-fluorobiphenyl-3-yl)methyl)-1-(2-hydroxy-2-methylpropanoyl)pyrrolidin-3-yl)ethanesulfonamide] | 101% |
| CCS(=O)(=O)N[C@H]1CCN(C(=O)C(C)(C)O)[C@H]1Cc1cccc(-c2cc(F)cc(F)c2)c1F [Example 435, N-((2S,3S)-1-(2-hydroxy-2-methylpropanoyl)-2-((2,3′,5′-trifluorobiphenyl-3-yl)methyl)pyrrolidin-3-yl)ethanesulfonamide] | 107% |
| CCS(=O)(=O)N[C@H]1CCN(C(=O)C(C)(C)O)[C@H]1Cc1cccc(-c2cc(F)cc(Cl)c2)c1F [Example 437, N-((2S,3S)-2-((3′-chloro-2,5′-difluorobiphenyl-3-yl)methyl)-1-(2-hydroxy-2-methylpropanoyl)pyrrolidin-3-yl)ethanesulfonamide] | 99% |
| CC(C)(O)C(=O)N1CC[C@H](NS(=O)(=O)C2CC2)[C@@H]1Cc1cccc(-c2cc(F)cc(F)c2)c1F [Example 439, N-((2S,3S)-1-(2-hydroxy-2-methylpropanoyl)-2-((2,3′,5′-trifluorobiphenyl-3-yl)methyl)pyrrolidin-3-yl)cyclopropanesulfonamide] | 98% |
| CS(=O)(=O)N[C@H]1CCN(C(=O)C2CCO2)[C@H]1Cc1cccc(-c2cc(F)cc(F)c2)c1F (stereo partly drawn) [Example 441, N-{(2S,3S)-1-(oxetane-2-carbonyl)-2-[(2,3′,5′-trifluoro[1,1′-biphenyl]-3-yl)methyl]pyrrolidin-3-yl}methanesulfonamide] | 99% |

Source: patent US20200207734A1, “HETEROCYCLIC COMPOUND AND USE THEREOF” (Takeda Pharmaceutical Company Limited, priority 2017, published 2020)
